In US20100285959A1, “HERBICIDAL MIXTURES” (priority 2006, published 2010):

Assays:
corn (ZEAMD) = test: Test 28 greenhouse, post- and preemergence; format: in vivo, Zea mays ssp. indentata; conditions: 26 DAA
Method: (§1) A greenhouse test was conducted to evaluate the effects on the plant species corn (ZEAMD, Zea mays ssp. indentata), sorghum (SORVU, Sorghum vulgare L.), dry-seeded rice (ORYSA, Oryza sativa L.), wheat (TRZAW, Triticum aestivum L.), ivyleaf morningglory (IPOHE, Ipomoea hederacea (L.) JACQ.), and barnyardgrass (ECHCG, Echinochloa crus-galli (L.) P. BEAUV.), of mixtures of Compound 2 with isoxadifen-ethyl. Corn, sorghum, rice, wheat, ivyleaf morningglory and barnyardgrass seeds were planted in RediEarth, a commercial potting medium. […] Corn plants were treated postemergence at the V2 growth stage, and sorghum, rice, wheat, ivyleaf morningglory, and barnyardgrass plants were treated postemergence at the 3-leaf stage. […] Each treatment was replicated three times. […] Plants were watered as needed.

sorghum (SORVU) = test: Test 28 greenhouse, postemergence; format: in vivo, Sorghum vulgare; conditions: 26 DAA
Method: as §1

dry-seeded rice (ORYSA) = test: Test 28 greenhouse, postemergence; format: in vivo, Oryza sativa; conditions: 26 DAA
Method: as §1

wheat (TRZAW) = test: Test 28 greenhouse, post- and preemergence; format: in vivo, Triticum aestivum; conditions: 26 DAA
Method: as §1

[1] = system: ivyleaf morningglory (IPOHE); test: Test 28 greenhouse, postemergence; format: in vivo, Ipomoea hederacea; conditions: 26 DAA
Method: as §1

barnyardgrass (ECHCG) [2] = test: Test 28 greenhouse, postemergence; format: in vivo, Echinochloa crus-galli; conditions: 26 DAA
Method: as §1

ducksalad (HETLI) = test: Test 32 greenhouse, simulated flooded rice culture; format: in vivo, Heteranthera limosa; design: scale not given here; conditions: postemergence to flood, 21 DAA
Method: (§2) A greenhouse trial was conducted to evaluate the effects of Compound 1 and isoxadifen-ethyl at different ratios in simulated flooded rice culture. Plastic pots (11-cm diameter) were partially filled with non-sterilized Tama silt loam soil containing a 15:57:28 ratio of sand, silt and clay and 2.9% organic matter. Seeds of Heteranthera limosa (ducksalad; HETLI), Cyperus difformis (smallflower umbrella sedge; CYPDI), one stand of Echinochloa crus-galli (barnyardgrass; ECHCG), and one stand of four rice seedlings (Oryza sativa cv. ‘M202’; ORYSA) were planted into a single 11-cm diameter pot for each rate and mixture of rates. To obtain this planting, C. difformis and H. limosa seeds were planted separately on the surface soil layer at particular locations within each pot. Water levels were brought to a puddled condition above the soil surface directly after planting. E. crus-galli and rice seeds were planted in cavity trays in the silt loam soil and transplanted at the 1.5 and 2.0 leaf stage, respectively. E. crus-galli and rice plants were transplanted to about 2-cm depth by transferring plugs from the cavity trays. Plantings were sequential so that these plant species all reached the 2.0- to 2.5-leaf stage in the 11-cm diameter pot at time of treatment. Plantings were established and maintained in a greenhouse with day and night temperatures of about 29.5 and 26.7° C. respectively; supplemental balanced lighting was provided to maintain a 16-hour photoperiod. Pots were fertilized periodically with a 200 ppm solution of commercial Scotts Peters® Professional® General Purpose 20-20-20 Water Soluble Fertilizer, amended to 10 ppm with a commercial iron-chelate micronutrient fertilizer. The solution was supplied at time of watering via a liquid fertilizer injector.
(§3) At treatment time, test pots were flooded to 3 cm above the soil surface and maintained at that water depth for the duration of the test. Chemical treatments were formulated in acetone and applied directly to the paddy water (i.e., postemergence to flood). Make-up volumes of acetone were added to ensure that all pots were treated with a consistent volume. Test pots were maintained in the greenhouse. A randomized complete block design was employed. Five replicates of each treatment, alone and in mixture, were used. Each species was visually evaluated for treatment effects by comparing those treated to untreated controls and rated for plant response after 21 days.

[3] = system: smallflower umbrella sedge (CYPDI); test: Test 32 greenhouse, simulated flooded rice culture; format: in vivo, Cyperus difformis; conditions: postemergence to flood, 21 DAA
Method: as §2, §3

barnyardgrass (ECHCG) [4] = test: Test 32 greenhouse, simulated flooded rice culture; format: in vivo, Echinochloa crus-galli; design: scale not given here; conditions: postemergence to flood, 21 DAA
Method: as §2, §3

rice (ORYSA) = test: Test 32 greenhouse, simulated flooded rice culture; format: in vivo, Oryza sativa; conditions: postemergence to flood, 21 DAA
Method: as §2, §3

[5] = postemergence, Isoxadifen-ethyl 64 g a.i./ha
[6] = postemergence, Isoxadifen-ethyl 128 g a.i./ha
[7] = postemergence, Isoxadifen-ethyl 256 g a.i./ha
[8] = postemergence, Isoxadifen-ethyl 512 g a.i./ha
[9] = postemergence, Isoxadifen-ethyl 1024 g a.i./ha
[10] = preemergence, Isoxadifen-ethyl 64 g a.i./ha
[11] = preemergence, Isoxadifen-ethyl 128 g a.i./ha
[12] = preemergence, Isoxadifen-ethyl 256 g a.i./ha
[13] = preemergence, Isoxadifen-ethyl 512 g a.i./ha
[14] = preemergence, Isoxadifen-ethyl 1024 g a.i./ha
[15] = Isoxadifen-ethyl 1024 g a.i./ha
[16] = Isoxadifen-ethyl 31.25 g a.i./ha
[17] = Isoxadifen-ethyl 62.5 g a.i./ha
[18] = Isoxadifen-ethyl 1000 g a.i./ha
[19] = Isoxadifen-ethyl 1500 g a.i./ha

CCOC(=O)C1=NOC(c2ccccc2)(c2ccccc2)C1 [Isoxadifen-ethyl]
ZEAMD Obs (corn (ZEAMD); [5]): 0 | ZEAMD Obs (corn (ZEAMD); [6]): 0 | ZEAMD Obs (corn (ZEAMD); [7]): 0 | ZEAMD Obs (corn (ZEAMD); [8]): 0 | ZEAMD Obs (corn (ZEAMD); [9]): 0 | ZEAMD Obs (corn (ZEAMD); [10]): 0 | ZEAMD Obs (corn (ZEAMD); [11]): 0 | ZEAMD Obs (corn (ZEAMD); [12]): 0 | ZEAMD Obs (corn (ZEAMD); [13]): 0 | ZEAMD Obs (corn (ZEAMD); [14]): 0 | SORVU Obs (sorghum (SORVU); Isoxadifen-ethyl 64 g a.i./ha): 0% | SORVU Obs (sorghum (SORVU); Isoxadifen-ethyl 128 g a.i./ha): 0% | SORVU Obs (sorghum (SORVU); Isoxadifen-ethyl 256 g a.i./ha): 0% | SORVU Obs (sorghum (SORVU); Isoxadifen-ethyl 512 g a.i./ha): 0% | SORVU Obs (sorghum (SORVU); [15]): 0% | ORYSA Obs (dry-seeded rice (ORYSA); Isoxadifen-ethyl 64 g a.i./ha): 0 | ORYSA Obs (dry-seeded rice (ORYSA); Isoxadifen-ethyl 128 g a.i./ha): 0 | ORYSA Obs (dry-seeded rice (ORYSA); Isoxadifen-ethyl 256 g a.i./ha): 0 | ORYSA Obs (dry-seeded rice (ORYSA); Isoxadifen-ethyl 512 g a.i./ha): 0 | ORYSA Obs (dry-seeded rice (ORYSA); [15]): 0 | TRZAW Obs (wheat (TRZAW); [5]): 0% | TRZAW Obs (wheat (TRZAW); [6]): 0% | TRZAW Obs (wheat (TRZAW); [7]): 0% | TRZAW Obs (wheat (TRZAW); [8]): 0% | TRZAW Obs (wheat (TRZAW); [9]): 0% | TRZAW Obs (wheat (TRZAW); [10]): 0% | TRZAW Obs (wheat (TRZAW); [11]): 0% | TRZAW Obs (wheat (TRZAW); [12]): 0% | TRZAW Obs (wheat (TRZAW); [13]): 0% | TRZAW Obs (wheat (TRZAW); [14]): 0% | IPOHE Obs ([1]; Isoxadifen-ethyl 64 g a.i./ha): 0 | IPOHE Obs ([1]; Isoxadifen-ethyl 128 g a.i./ha): 0 | IPOHE Obs ([1]; Isoxadifen-ethyl 256 g a.i./ha): 0 | IPOHE Obs ([1]; Isoxadifen-ethyl 512 g a.i./ha): 0 | IPOHE Obs [1, 15]: 0 | ECHCG Obs (barnyardgrass (ECHCG) [2]; Isoxadifen-ethyl 64 g a.i./ha): 0 | ECHCG Obs (barnyardgrass (ECHCG) [2]; Isoxadifen-ethyl 128 g a.i./ha): 0 | ECHCG Obs (barnyardgrass (ECHCG) [2]; Isoxadifen-ethyl 256 g a.i./ha): 0 | ECHCG Obs (barnyardgrass (ECHCG) [2]; Isoxadifen-ethyl 512 g a.i./ha): 0 | ECHCG Obs (barnyardgrass (ECHCG) [2]; [15]): 0 | HETLI Obs (ducksalad (HETLI); [16]): 10 | HETLI Obs (ducksalad (HETLI); [17]): 29 | HETLI Obs (ducksalad (HETLI); Isoxadifen-ethyl 125 g a.i./ha): 35 | HETLI Obs (ducksalad (HETLI); Isoxadifen-ethyl 250 g a.i./ha): 19 | HETLI Obs (ducksalad (HETLI); Isoxadifen-ethyl 500 g a.i./ha): 23 | HETLI Obs (ducksalad (HETLI); [18]): 25 | HETLI Obs (ducksalad (HETLI); [19]): 36 | CYPDI Obs [3, 16]: 28 | CYPDI Obs [3, 17]: 24 | CYPDI Obs ([3]; Isoxadifen-ethyl 125 g a.i./ha): 84 | CYPDI Obs ([3]; Isoxadifen-ethyl 250 g a.i./ha): 59 | CYPDI Obs ([3]; Isoxadifen-ethyl 500 g a.i./ha): 49 | CYPDI Obs [3, 18]: 53 | CYPDI Obs [3, 19]: 59 | ECHCG Obs (barnyardgrass (ECHCG) [4]; [16]): 4 | ECHCG Obs (barnyardgrass (ECHCG) [4]; [17]): 9 | ECHCG Obs (barnyardgrass (ECHCG) [4]; Isoxadifen-ethyl 125 g a.i./ha): 15 | ECHCG Obs (barnyardgrass (ECHCG) [4]; Isoxadifen-ethyl 250 g a.i./ha): 10 | ECHCG Obs (barnyardgrass (ECHCG) [4]; Isoxadifen-ethyl 500 g a.i./ha): 5 | ECHCG Obs (barnyardgrass (ECHCG) [4]; [18]): 8 | ECHCG Obs (barnyardgrass (ECHCG) [4]; [19]): 9 | ORYSA Obs (rice (ORYSA); [16]): 2% | ORYSA Obs (rice (ORYSA); [17]): 5% | ORYSA Obs (rice (ORYSA); Isoxadifen-ethyl 125 g a.i./ha): 11% | ORYSA Obs (rice (ORYSA); Isoxadifen-ethyl 250 g a.i./ha): 7% | ORYSA Obs (rice (ORYSA); Isoxadifen-ethyl 500 g a.i./ha): 5% | ORYSA Obs (rice (ORYSA); [18]): 5% | ORYSA Obs (rice (ORYSA); [19]): 10%
